# Reference: patent publication US7951814B2, “Quinazolinedione derivatives as TRPA1 modulators” (Glenmark Pharmaceuticals, S.A., priority 2008, dated 2011)
# pIC50: −log10 of the molar value.
# Target: T1, Human TRPA1 expressing CHO cells (Homo sapiens, UniProt O75762)
# T1 construct: expressed in transfected cells; host or cells: CHO cells (under G-418 selection)
# Assay: 45Calcium uptake assay: inhibition of AITC induced cellular uptake of radioactive calcium
# Assay type: cell-based
# Conditions: AITC 30 μM, human TRPA1 CHO cells; for inhibition at 1 µM: 1.0 μM test compound, read-out: Percentage inhibition at 1.0 μM; for inhibition at 10 µM: 10.0 μM test compound, read-out: Percentage inhibition at 10.0 μM; for pIC50: read-out: IC50 value (range)
# Description: The illustrative examples of the present invention are screened for TRPA1 activity according to a modified procedure described in (a) Tóth, A. et al. Life Sciences (2003), 73, 487-498. ([…]. et al. Proc. Natl. Acad. Sci. U.S.A., (2007), 104, 13525-13530. The screening of the compounds can be carried out by other methods and procedures known to persons skilled in the art. Screening for TRPA1 Antagonist Using the ^45Calcium Uptake Assay The inhibition of TRPA1 receptor activation was measured as inhibition of allyl isothiocyanate (AITC) induced cellular uptake of radioactive calcium. […] Final concentration of DMSO in the reaction was 0.5% (v/v). […] Cells were seeded 24 h prior to the assay in 96 well plates so as to get 50,000 cells per well on the day of experiment. Cells were treated with test compounds for 10 min followed by addition of AITC at a final concentration of 30 μM and 5 μCi/ml ^45Ca^+2 for 3 min. […] Radioactivity in the lysate was measured in Packard Top count after addition of liquid scintillant. Concentration response curves were plotted as a % of maximal response obtained in the absence of test antagonist. IC50 value was calculated from concentration response curve by nonlinear regression analysis using GraphPad PRISM software.
# T1 sequence (O75762 whole entry): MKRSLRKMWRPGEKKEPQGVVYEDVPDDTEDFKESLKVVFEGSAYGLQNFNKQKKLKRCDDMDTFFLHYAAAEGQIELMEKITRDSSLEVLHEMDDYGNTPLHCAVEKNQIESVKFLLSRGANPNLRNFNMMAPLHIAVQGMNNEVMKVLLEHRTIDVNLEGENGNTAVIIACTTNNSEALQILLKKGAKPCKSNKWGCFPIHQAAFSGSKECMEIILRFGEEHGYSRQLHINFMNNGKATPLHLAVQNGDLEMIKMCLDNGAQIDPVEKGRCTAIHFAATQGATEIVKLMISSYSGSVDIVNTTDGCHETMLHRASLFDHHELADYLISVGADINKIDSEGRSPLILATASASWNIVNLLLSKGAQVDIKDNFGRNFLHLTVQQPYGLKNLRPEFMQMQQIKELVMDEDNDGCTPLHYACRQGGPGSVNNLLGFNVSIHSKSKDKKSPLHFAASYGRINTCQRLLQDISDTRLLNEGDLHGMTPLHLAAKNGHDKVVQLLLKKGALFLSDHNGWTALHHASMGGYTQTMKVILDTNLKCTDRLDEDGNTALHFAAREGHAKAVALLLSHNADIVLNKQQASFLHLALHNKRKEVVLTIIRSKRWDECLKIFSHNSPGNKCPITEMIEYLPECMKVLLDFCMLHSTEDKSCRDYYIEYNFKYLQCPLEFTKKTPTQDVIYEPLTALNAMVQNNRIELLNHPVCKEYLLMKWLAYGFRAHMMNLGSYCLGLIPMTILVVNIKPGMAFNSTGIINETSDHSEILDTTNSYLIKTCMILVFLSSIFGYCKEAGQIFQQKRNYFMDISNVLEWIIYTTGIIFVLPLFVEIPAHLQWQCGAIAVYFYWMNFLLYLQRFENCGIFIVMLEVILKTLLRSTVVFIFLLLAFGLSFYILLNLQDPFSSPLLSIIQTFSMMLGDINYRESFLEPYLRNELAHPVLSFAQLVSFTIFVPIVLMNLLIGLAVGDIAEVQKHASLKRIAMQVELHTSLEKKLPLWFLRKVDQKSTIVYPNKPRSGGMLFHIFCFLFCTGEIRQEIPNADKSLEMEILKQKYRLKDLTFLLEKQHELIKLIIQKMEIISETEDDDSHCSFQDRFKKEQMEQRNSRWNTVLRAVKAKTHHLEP
SMILES,inhibition at 1 µM [%],inhibition at 10 µM [%],pIC50
"Cn1c(=O)c2c(CC(=O)Nc3nc(-c4cccc(F)c4F)cs3)cccc2n(C)c1=O [Example 35, N1-[4-(2,3-Difluorophenyl)-1,3-thiazol-2-yl]-2-(1,3-dimethyl-2,4-dioxo-1,2,3,4-tetrahydro-5-quinazolinyl)acetamide]",76.8,95.8,7.00 to 7.30
"Cn1c(=O)c2c(CC(=O)Nc3nc(-c4ccc(F)c(F)c4)cs3)cccc2n(C)c1=O [Example 32, N1-[4-(3,4-Difluorophenyl)-1,3-thiazol-2-yl]-2-(1,3-dimethyl-2,4-dioxo-1,2,3,4-tetrahydro-5-quinazolinyl)acetamide]",53.7,66.3,–
"Cn1c(=O)c2c(CC(=O)Nc3nc(-c4cc(Cl)cc(Cl)c4)cs3)cccc2n(C)c1=O [Example 48, N1-[4-(3,5-Dichlorophenyl)-1,3-thiazol-2-yl]-2-(1,3-dimethyl-2,4-dioxo-1,2,3,4-tetrahydro-5-quinazolinyl)acetamide]",96.3,100,7.00 to 7.30
"Cn1c(=O)c2c(CC(=O)Nc3nc(-c4c(F)cccc4F)cs3)cccc2n(C)c1=O [Example 33, N1-[4-(2,6-Difluorophenyl)-1,3-thiazol-2-yl]-2-(1,3-dimethyl-2,4-dioxo-1,2,3,4-tetrahydro-5-quinazolinyl)acetamide]",50.4,79.8,–
"Cn1c(=O)c2c(CC(=O)Nc3cccc(-c4ccc(Cl)cc4)n3)cccc2n(C)c1=O [Example 4, N1-[6-(4-chlorophenyl)-2-pyridyl]-2-(1,3-dimethyl-2,4-dioxo-1,2,3,4-tetrahydro-5-quinazolinyl)acetamide]",60.7,95.2,–
"CCn1c(=O)c2c(CC(=O)Nc3nc(-c4ccc(Cl)cc4)cs3)cccc2n(CC)c1=O [Example 25, N1-[4-(4-Chlorophenyl)-1,3-thiazol-2-yl]-2-(1,3-diethyl-2,4-dioxo-1,2,3,4-tetrahydro-5-quinazolinyl)acetamide]",20.4,30.8,–
Cn1c(=O)c2c(CC(=O)Nc3nc(-c4cc(F)c(OC(F)F)c(F)c4)cs3)cccc2n(C)c1=O [Example 69],99.9,100,> 7.30
"Cn1c(=O)c2c(CC(=O)Nc3nc(-c4ccc(OCC(F)(F)F)c(F)c4)cs3)cccc2n(C)c1=O [Example 59, N1-{4-[3-fluoro-4-(2,2,2-trifluoroethoxy)phenyl]-1,3-thiazol-2yl}-2-(1,3-dimethyl-2,4-dioxo-1,2,3,4-tetrahydro-5-quinazolinyl)acetamide]",96.8,100,> 7.30
COc1ccc(-c2csc(NC(=O)Cc3cccc4c3c(=O)n(C)c(=O)n4C)n2)cc1F [Example 43],5.71,9.15,–
"Cn1c(=O)c2c(CC(=O)Nc3nc(-c4cc(C(F)(F)F)ccc4Cl)cs3)cccc2n(C)c1=O [Example 56, N1-[4-(2-Chloro-5-trifuoromethylphenyl)-1,3-thiazol-2-yl]-2-(1,3-dimethyl-2,4-dioxo-1,2,3,4-tetrahydro-5-quinazolinyl)propanamide]",85,99.8,< 7.00
"Cn1c(=O)c2c(CC(=O)Nc3nc(-c4ccc(C(C)(C)C)cc4)cs3)cccc2n(C)c1=O [Example 20, N1-[4-(4-tert-Butylphenyl)-1,3-thiazol-2-yl]-2-(1,3-dimethyl-2,4-dioxo-1,2,3,4-tetrahydro-5-quinazolinyl)acetamide]",98.9,99.8,7.00 to 7.30
"Cn1c(=O)c2c(CC(=O)Nc3nc(-c4cccc(OC(F)(F)F)c4)cs3)cccc2n(C)c1=O [Example 16, N1-[4-(3-Trifluoromethoxyphenyl)-1,3-thiazol-2-yl]-2-(1,3-dimethyl-2,4-dioxo-1,2,3,4-tetrahydro-5-quinazolinyl)acetamide]",95.6,99.7,> 7.30
"Cn1c(=O)c2c(CC(=O)Nc3ccn(-c4cccc(C(F)(F)F)c4)n3)cccc2n(C)c1=O [Example 81, N1-[1-(3-Trifluoromethylphenyl)-1H-3-pyrazolyl]-2-(1,3-dimethyl-2,4-dioxo-1,2,3,4-tetrahydro-5-quinazolinyl)acetamide]",97.1,99.6,7.00 to 7.30
"Cn1c(=O)c2c(CC(=O)Nc3nc(-c4ccc(F)c(C(F)(F)F)c4)cs3)cccc2n(C)c1=O [Example 38, N1-[4-(4-Fluoro-3-trifluoromethylphenyl)-1,3-thiazol-2-yl]-2-(1,3-dimethyl-2,4-dioxo-1,2,3,4-tetrahydro-5-quinazolinyl)acetamide]",98.5,98.7,> 7.30
"Cn1c(=O)c2c(CC(=O)Nc3nc(-c4ccc(Cl)c(C(F)(F)F)c4)cs3)cccc2n(C)c1=O [Example 55, N1-[4-(4-Chloro, 3-trifluoromethylphenyl)-1,3-thiazol-2-yl]-2-(1,3-dimethyl-2,4-dioxo-1,2,3,4-tetrahydro-5-quinazolinyl)acetamide]",100,100,> 7.30
"Cn1c(=O)c2c(CC(=O)Nc3nc(-c4cc(F)c(OCC(F)(F)F)c(F)c4)cs3)cccc2n(C)c1=O [Example 70, N1-{4-[3,5-Difluoro-4-(2,2,2-trifluoroethoxy)phenyl]-1,3-thiazol-2-yl}-2-(1,3-dimethyl-2,4-dioxo-1,2,3,4-tetrahydro-5-quinazolinyl)acetamide]",100,99.9,> 7.30
"Cc1sc(NC(=O)Cc2cccc3c2c(=O)n(C)c(=O)n3C)nc1-c1ccc(Cl)cc1 [Example 30, N1-[4-(4-Chlorophenyl)-5-methyl-1,3-thiazolyl]-2-(1,3-dimethyl-2,4-dioxo-1,2,3,4-tetrahydro-5-quinazolinyl)acetamide]",37.3,91,–
Cn1c(=O)c2c(CC(=O)Nc3nc4ccccc4s3)cccc2n(C)c1=O [Example 75],5.6,30.5,–
"Cn1c(=O)c2c(CC(=O)Nc3nc(-c4ccc(F)cc4)cs3)cccc2n(C)c1=O [Example 9, N1-[4-(4-Fluorophenyl)-1,3-thiazol-2yl]-2-(1,3-dimethyl-2,4-dioxo-1,2,3,4-tetrahydro-5-quinazolinyl)acetamide]",30.8,43.8,–
"Cn1c(=O)c2c(CC(=O)Nc3ccc(-c4ccc(Br)cc4)cc3)cccc2n(C)c1=O [Example 2, N1-[4-(4-Bromophenyl)phenyl]-2-(1,3-dimethyl-2,4-dioxo-1,2,3,4-tetrahydro-5-quinazolinyl)acetamide]",25.3,50.8,–
"Cn1c(=O)c2c(CC(=O)Nc3nc(-c4ccc(Cl)c(Cl)c4)cs3)cccc2n(C)c1=O [Example 47, N1-[4-(3,4-Dichlorophenyl)-1,3-thiazol-2yl]-2-(1,3-dimethyl-2,4-dioxo-1,2,3,4-tetrahydro-5-quinazolinyl)acetamide]",98.4,99.2,7.00 to 7.30
"Cn1c(=O)c2c(CC(=O)Nc3nc(-c4ccc(C(F)(F)F)cc4F)cs3)cccc2n(C)c1=O [Example 36, N1-[4-(2-Fluoro-4-trifluoromethylphenyl)-1,3-thiazol-2-yl]-2-(1,3-dimethyl-2,4-1,2,3,4-tetrahydro-5-quinazolinyl)acetamide]",95.1,100,> 7.30
"Cn1c(=O)c2c(CC(=O)Nc3nc(-c4cccc(Cl)c4)cs3)cccc2n(C)c1=O [Example 11, N1-[4-(3-Chlorophenyl)-1,3-thiazol-2yl]-2-(1,3-dimethyl-2,4-dioxo-1,2,3,4-tetrahydro-5-quinazolinyl)acetamide]",95.5,99.1,< 7.00
"Cn1c(=O)c2c(CC(=O)Nc3nc(-c4c[nH]c5ccccc45)cs3)cccc2n(C)c1=O [Example 73, N1-[4-(1H-3-Indolyl)-1,3-thiazol-2-yl]-2-(1,3-dimethyl-2,4-dioxo-1,2,3,4-tetrahydro-5-quinazolinyl)acetamide]",32.5,72.6,–
"Cn1c(=O)c2c(CC(=O)Nc3nc(-c4cc(C(F)(F)F)ccc4F)cs3)cccc2n(C)c1=O [Example 40, N1-[4-(2-Fluoro-5-trifluoromethylphenyl)-1,3-thiazol-2-yl]-2-(1,3-dimethyl-2,4-dioxo-1,2,3,4-tetrahydro-5-quinazolinyl)acetamide]",82.7,98.7,< 7.00
"Cn1c(=O)c2c(CC(=O)Nc3nnc(-c4ccc(Br)cc4)s3)cccc2n(C)c1=O [Example 83, N1-[5-(4-Bromophenyl)-1,3,4-thadiazol-2-yl]-2-(1,3-dimethyl-2,4-dioxo-1,2,3,4-tetrahydro-5-quinazolinyl)acetamide]",5.49,3.46,–
